Assay results reported in the NIST ThermoML archive (doi:10.1016/j.jct.2012.11.014).
Numbers after ± are expanded uncertainties.

Assay: xn = mol fraction of the nth substance listed
Conditions: 101 kPa, Liquid; for speed of sound: Frequency=2 MHz, Linear variable-path acoustic interferometer; for viscosity: Oscillating disk viscometry; for mass density: Vibrating tube method

C[NH+](C)C.O=P([O-])(O)O [trimethylammonium dihydrogen phosphate] + C[S+](C)[O-]
speed of sound (308.15 K, x1 = 0.0264): 1459 ± 3 m/s
speed of sound (308.15 K, x1 = 0.0397): 1460 ± 3 m/s
speed of sound (308.15 K, x1 = 0.0708): 1461 ± 3 m/s
speed of sound (308.15 K, x1 = 0.1172): 1464 ± 3 m/s
speed of sound (308.15 K, x1 = 0.1673): 1468 ± 3 m/s
speed of sound (308.15 K, x1 = 0.2284): 1475 ± 3 m/s
speed of sound (308.15 K, x1 = 0.2934): 1485 ± 3 m/s
speed of sound (308.15 K, x1 = 0.3413): 1492 ± 3 m/s
speed of sound (308.15 K, x1 = 0.4012): 1504 ± 3 m/s
speed of sound (308.15 K, x1 = 0.4659): 1518 ± 3 m/s
speed of sound (308.15 K, x1 = 0.5306): 1531 ± 3 m/s
speed of sound (308.15 K, x1 = 0.6022): 1548 ± 3 m/s
speed of sound (308.15 K, x1 = 0.6728): 1567 ± 3 m/s
speed of sound (308.15 K, x1 = 0.7504): 1588 ± 3 m/s
speed of sound (308.15 K, x1 = 0.8137): 1605 ± 3 m/s
speed of sound (308.15 K, x1 = 0.8805): 1625 ± 3 m/s
speed of sound (308.15 K, x1 = 0.9643): 1649 ± 3 m/s
speed of sound (308.15 K, x1 = 0.9858): 1656 ± 3 m/s
speed of sound (308.15 K, x1 = 1): 1661 ± 3 m/s
viscosity (308.15 K, x1 = 0.0264): 1.78 ± 0.11 mPa·s
viscosity (308.15 K, x1 = 0.0397): 1.83 ± 0.11 mPa·s
viscosity (308.15 K, x1 = 0.0708): 1.97 ± 0.12 mPa·s
viscosity (308.15 K, x1 = 0.1172): 2.18 ± 0.14 mPa·s
viscosity (308.15 K, x1 = 0.1673): 2.41 ± 0.15 mPa·s
viscosity (308.15 K, x1 = 0.2284): 2.67 ± 0.17 mPa·s
viscosity (308.15 K, x1 = 0.2934): 2.94 ± 0.19 mPa·s
viscosity (308.15 K, x1 = 0.3413): 3.13 ± 0.2 mPa·s
viscosity (308.15 K, x1 = 0.4012): 3.37 ± 0.22 mPa·s
viscosity (308.15 K, x1 = 0.4659): 3.62 ± 0.23 mPa·s
viscosity (308.15 K, x1 = 0.5306): 3.86 ± 0.25 mPa·s
viscosity (308.15 K, x1 = 0.6022): 4.13 ± 0.27 mPa·s
viscosity (308.15 K, x1 = 0.6728): 4.38 ± 0.28 mPa·s
viscosity (308.15 K, x1 = 0.7504): 4.67 ± 0.3 mPa·s
viscosity (308.15 K, x1 = 0.8137): 4.91 ± 0.32 mPa·s
viscosity (308.15 K, x1 = 0.8805): 5.16 ± 0.34 mPa·s
viscosity (308.15 K, x1 = 0.9643): 5.47 ± 0.36 mPa·s
viscosity (308.15 K, x1 = 0.9858): 5.56 ± 0.36 mPa·s
viscosity (308.15 K, x1 = 1): 5.61 ± 0.37 mPa·s
mass density (308.15 K, x1 = 0.0264): 1093.45 ± 1 kg/m3
mass density (308.15 K, x1 = 0.0397): 1096.91 ± 1 kg/m3
mass density (308.15 K, x1 = 0.0708): 1104.49 ± 1 kg/m3
mass density (308.15 K, x1 = 0.1172): 1114.06 ± 1 kg/m3
mass density (308.15 K, x1 = 0.1673): 1124.47 ± 1.1 kg/m3
mass density (308.15 K, x1 = 0.2284): 1136.12 ± 1.1 kg/m3
mass density (308.15 K, x1 = 0.2934): 1147.36 ± 1.1 kg/m3
mass density (308.15 K, x1 = 0.3413): 1157.63 ± 1.1 kg/m3
mass density (308.15 K, x1 = 0.4012): 1167.76 ± 1.1 kg/m3
mass density (308.15 K, x1 = 0.4659): 1181.31 ± 1.1 kg/m3
mass density (308.15 K, x1 = 0.5306): 1196.24 ± 1.1 kg/m3
mass density (308.15 K, x1 = 0.6022): 1214.48 ± 1.1 kg/m3
mass density (308.15 K, x1 = 0.6728): 1232.06 ± 1.1 kg/m3
mass density (308.15 K, x1 = 0.7504): 1256.27 ± 1.1 kg/m3
mass density (308.15 K, x1 = 0.8137): 1276.94 ± 1.1 kg/m3
mass density (308.15 K, x1 = 0.8805): 1301.06 ± 1.1 kg/m3
mass density (308.15 K, x1 = 0.9643): 1334.09 ± 1.1 kg/m3
mass density (308.15 K, x1 = 0.9858): 1342.26 ± 1.1 kg/m3
mass density (308.15 K, x1 = 1): 1347.59 ± 1.1 kg/m3
speed of sound (313.15 K, x1 = 0.0264): 1442 ± 3 m/s
speed of sound (313.15 K, x1 = 0.0397): 1443 ± 3 m/s
speed of sound (313.15 K, x1 = 0.0708): 1444 ± 3 m/s
speed of sound (313.15 K, x1 = 0.1172): 1449 ± 3 m/s
speed of sound (313.15 K, x1 = 0.1673): 1452 ± 3 m/s
speed of sound (313.15 K, x1 = 0.2284): 1460 ± 3 m/s
speed of sound (313.15 K, x1 = 0.2934): 1471 ± 3 m/s
speed of sound (313.15 K, x1 = 0.3413): 1479 ± 3 m/s
speed of sound (313.15 K, x1 = 0.4012): 1493 ± 3 m/s
speed of sound (313.15 K, x1 = 0.4659): 1507 ± 3 m/s
speed of sound (313.15 K, x1 = 0.5306): 1522 ± 3 m/s
speed of sound (313.15 K, x1 = 0.6022): 1540 ± 3 m/s
speed of sound (313.15 K, x1 = 0.6728): 1560 ± 3 m/s
speed of sound (313.15 K, x1 = 0.7504): 1581 ± 3 m/s
speed of sound (313.15 K, x1 = 0.8137): 1601 ± 3 m/s
speed of sound (313.15 K, x1 = 0.8805): 1623 ± 3 m/s
speed of sound (313.15 K, x1 = 0.9643): 1651.4 ± 2.7 m/s
speed of sound (313.15 K, x1 = 0.9858): 1659 ± 3 m/s
speed of sound (313.15 K, x1 = 1): 1664 ± 3 m/s
viscosity (313.15 K, x1 = 0.0264): 1.65 ± 0.1 mPa·s
viscosity (313.15 K, x1 = 0.0397): 1.7 ± 0.11 mPa·s
viscosity (313.15 K, x1 = 0.0708): 1.83 ± 0.11 mPa·s
viscosity (313.15 K, x1 = 0.1172): 2.02 ± 0.13 mPa·s
viscosity (313.15 K, x1 = 0.1673): 2.22 ± 0.14 mPa·s
viscosity (313.15 K, x1 = 0.2284): 2.45 ± 0.15 mPa·s
viscosity (313.15 K, x1 = 0.2934): 2.69 ± 0.17 mPa·s
viscosity (313.15 K, x1 = 0.3413): 2.86 ± 0.18 mPa·s
viscosity (313.15 K, x1 = 0.4012): 3.07 ± 0.19 mPa·s
viscosity (313.15 K, x1 = 0.4659): 3.3 ± 0.21 mPa·s
viscosity (313.15 K, x1 = 0.5306): 3.51 ± 0.22 mPa·s
viscosity (313.15 K, x1 = 0.6022): 3.75 ± 0.24 mPa·s
viscosity (313.15 K, x1 = 0.6728): 3.98 ± 0.25 mPa·s
viscosity (313.15 K, x1 = 0.7504): 4.24 ± 0.27 mPa·s
viscosity (313.15 K, x1 = 0.8137): 4.44 ± 0.28 mPa·s
viscosity (313.15 K, x1 = 0.8805): 4.67 ± 0.3 mPa·s
viscosity (313.15 K, x1 = 0.9643): 4.95 ± 0.32 mPa·s
viscosity (313.15 K, x1 = 0.9858): 5.02 ± 0.32 mPa·s
viscosity (313.15 K, x1 = 1): 5.07 ± 0.32 mPa·s
mass density (313.15 K, x1 = 0.0264): 1089.15 ± 1 kg/m3
mass density (313.15 K, x1 = 0.0397): 1092.77 ± 1 kg/m3
mass density (313.15 K, x1 = 0.0708): 1100.69 ± 1 kg/m3
mass density (313.15 K, x1 = 0.1172): 1109.86 ± 1 kg/m3
mass density (313.15 K, x1 = 0.1673): 1121.53 ± 1.1 kg/m3
mass density (313.15 K, x1 = 0.2284): 1134.54 ± 1.1 kg/m3
mass density (313.15 K, x1 = 0.2934): 1145.27 ± 1.1 kg/m3
mass density (313.15 K, x1 = 0.3413): 1156.54 ± 1.1 kg/m3
mass density (313.15 K, x1 = 0.4012): 1167.52 ± 1.1 kg/m3
mass density (313.15 K, x1 = 0.4659): 1181.73 ± 1.1 kg/m3
mass density (313.15 K, x1 = 0.5306): 1196.14 ± 1.1 kg/m3
mass density (313.15 K, x1 = 0.6022): 1214.06 ± 1.1 kg/m3
mass density (313.15 K, x1 = 0.6728): 1232.95 ± 1.1 kg/m3
mass density (313.15 K, x1 = 0.7504): 1256.04 ± 1.1 kg/m3
mass density (313.15 K, x1 = 0.8137): 1276.61 ± 1.1 kg/m3
mass density (313.15 K, x1 = 0.8805): 1299.14 ± 1.1 kg/m3
mass density (313.15 K, x1 = 0.9643): 1331.48 ± 1.1 kg/m3
mass density (313.15 K, x1 = 0.9858): 1339.35 ± 1.1 kg/m3
mass density (313.15 K, x1 = 1): 1344.52 ± 1.1 kg/m3
